Assay results: PubChem BioAssay (NCI)
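Five compound concentrations were applied to cells in 96-well plates for 48 hours; endpoints were derived by simple linear interpolation of the resulting dose-response curve. TGI is the concentration that stops growth completely.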

What was measured:
Test in all cases: DTP human tumour cell line panel, 48 h
COLO 205 colon = system: COLO 205 colon
PC-3 prostate = system: PC-3 prostate
T-47D breast = system: T-47D breast
NCI-H23 lung = system: NCI-H23 lung
HCT-116 colon = system: HCT-116 colon
A498 renal = system: A498 renal
HOP-62 NSCLC = system: HOP-62 NSCLC
CCRF-CEM leukemia = system: CCRF-CEM leukemia
CAKI-1 renal = system: CAKI-1 renal
U251 CNS = system: U251 CNS
UACC-62 melanoma = system: UACC-62 melanoma
MDA-MB-435 = system: MDA-MB-435
M14 melanoma = system: M14 melanoma
OVCAR-4 ovarian = system: OVCAR-4 ovarian
SK-MEL-2 melanoma = system: SK-MEL-2 melanoma
TK-10 renal = system: TK-10 renal
RPMI-8226 leukemia = system: RPMI-8226 leukemia

Structure (SMILES) | TGI (COLO 205 colon) [µM] | TGI (PC-3 prostate) [µM] | TGI (T-47D breast) [µM] | TGI (NCI-H23 lung) [µM] | TGI (HCT-116 colon) [µM] | TGI (A498 renal) [µM] | TGI (HOP-62 NSCLC) [µM] | TGI (CCRF-CEM leukemia) [µM] | TGI (CAKI-1 renal) [µM] | TGI (U251 CNS) [µM] | TGI (UACC-62 melanoma) [µM] | TGI (MDA-MB-435) [µM] | TGI (M14 melanoma) [µM] | TGI (OVCAR-4 ovarian) [µM] | TGI (SK-MEL-2 melanoma) [µM] | TGI (TK-10 renal) [µM] | TGI (RPMI-8226 leukemia) [µM]
Cc1cc(C)n(CC(Cn2nc(C)cc2C)=C(/C(Cl)=C(/Cl)Nc2ccc([N+](=O)[O-])cc2)[N+](=O)[O-])n1 | 5.36 | 12.7 | 17.3 | 8.03 | 14.3 | 11.2 | 22.2 | 2.48 | 5.98 | 13.5 | 15.4 | 8.95 | 16.6 | 3.4 | 11.8 | 12.5 | 5.12
c1ccc2c(Cc3[nH]c4ccccc4c3Cc3c[nH]c4ccccc34)c[nH]c2c1 | 3.99 | 8.37 | 12.8 | 7.49 | 3.47 | 5.73 | 12.7 | 8.98 | 10.3 | 9.78 | > 32.4 | 5.16 | 6.71 | 13.2 | 7.71 | 8.1 | 12.2
O=C1CSC(/C=C/c2ccccc2)N1c1nc2cc3sc(N4C(=O)CSC4/C=C/c4ccccc4)nc3cc2s1 (stereo not given) | > 29.8 | > 100 | > 100 | > 100 | > 100 | > 100 | > 100 | > 63.5 | > 100 | > 100 | > 100 | > 100 | > 100 | > 100 | > 100 | > 100 | > 100
COc1ccc(N=Nc2c(C)c(C#N)c(=S)n(C3OC(CO)C(O)C(O)C3O)c2-c2ccccc2)cc1 (stereo not given) | > 100 | 66.3 | 97.3 | 98 | 94 | 44.5 | 98.2 | > 100 | 73.3 | 86.1 | 47.6 | 73.9 | 76.8 | > 100 | 89.7 | 94.8 | > 100
CC[C@H](C)[C@H]1NC(=O)[C@@H](NC(=O)[C@@H](CC(C)C)N(C)C(=O)C2CCCN2C(=O)[C@H](C)O)[C@@H](C)OC(=O)[C@H](Cc2ccc(OC)cc2)N(C)C(=O)[C@@H]2CCCN2C(=O)[C@H](CCCCNC(=O)OCc2ccccc2)NC(=O)[C@H](C)C(=O)[C@H](C(C)C)OC(=O)C[C@@H]1O (stereo not given in full) | 18.9 | 16.5 | > 25 | > 25 | 20.2 | > 25 | > 25 | > 25 | > 25 | 17.6 | > 25 | > 25 | > 25 | > 25 | 10.1 | > 25 | 19.7
CC(=O)C(=[N+]=[N-])C(=O)N1CCOC1=O | > 10 | > 10 | > 10 | > 10 | > 10 | > 10 | > 10 | > 10 | > 10 | > 10 | > 10 | > 10 | > 10 | > 10 | > 10 | > 10 | > 10
COC(=O)C(N)CCCC(N)C(=O)NC(C)C(=O)NC(CCC(=O)NCCNCCNc1c2ccccc2nc2cccc([N+](=O)[O-])c12)C(N)=O (stereo not given) | 20.4 | 29.5 | 45.8 | 9.91 | 24.5 | 40.3 | 53.7 | > 50.9 | > 100 | > 41.1 | 27.1 | 20.1 | 26.2 | 8.05 | 30.6 | > 94.3 | 34.6
C=C1C(=O)O[C@H]2C/C(C)=C/CC[C@@]3(C)O[C@](C)(CC[C@@H]3I)[C@@H](I)C[C@@H]12 | 12.5 | 22.9 | 15 | 18.5 | 9.51 | 17.5 | 15.6 | 13.3 | 14 | 11.7 | 12 | 11.7 | 27.1 | 14.3 | 25.8 | 12.4 | 5.12
O=C(O)CCCC(=O)Nn1c(Cc2ccc(Cl)cc2)n[nH]c1=O | > 100 | > 100 | > 100 | > 100 | > 100 | > 100 | > 100 | > 100 | > 100 | > 100 | > 100 | > 100 | > 100 | > 100 | > 100 | > 100 | > 100
CC(C)C1C(=O)N(c2c(F)c(F)c(F)c(F)c2F)C(=S)N1CCS(=O)c1ccccc1 (stereo not given) | 29.9 | 29.3 | 32.5 | 33.3 | 34.7 | 30.6 | 40.8 | 42.3 | 9.86 | 28 | 34.9 | 32.3 | 30.6 | 31.1 | 32.8 | 52 | 53.8
